Experimental data from ChEMBL document CHEMBL1201862, “PubChem BioAssay data set” (2004).
Activity calls are given as the source filed them.

How the values were obtained:
[1] = target: Insulin-degrading enzyme (Homo sapiens, UniProt P14735); test: Dose Response: Fluorescence polarization-based cell-based high throughput dose response assay for inhibitors of insulin-degrading enzyme (IDE). [Related pubchem assays: 434962 (Primary screen (IDE inhibitors in singlicate)), 449730 (Counterscreen (Cytotoxicity in triplicate)), 435028 (Confirmation (IDE inhibitors in triplicate)), 434984 (Summary …; assay type: functional
[2] = Counterscreen for IDE inhibitors: Luminescence-based cell-based high throughput dose response assay to identify compounds that are cytotoxic to HEK cells. [Related pubchem assays: 434962 (Primary screen (IDE inhibitors in singlicate)), 449730 (Counterscreen (Cytotoxicity in triplicate)), 435028 (Confirmation (IDE inhibitors in triplicate)) …; assay type: functional; conditions: HEK293
[3] = target: Mothers against decapentaplegic homolog 3 (Homo sapiens, UniProt P84022); test: Smad3 binding inhibitors, lysate ELISA, dose response, cell lysate, secondary confirmation, chemiluminescent ELISA, HEK293 lysate (AID 1058); assay type: functional
[4] = target: Cyclin-dependent kinase 5/CDK5 activator 1 (Homo sapiens, UniProt Q00535); test: CDK5/p35 kinase inhibitors, dose response, biochemical, cherry-picked samples, set 2 (AID 504545)
[5] = target: Dual specificity protein phosphatase 3 (Homo sapiens, UniProt P51452); test: VHR1 inhibitor Ki determination, SAR follow-up, biochemical, colorimetric (AID 2004)
[6] = target: T1, Eukaryotic translation initiation factor 2-alpha kinase 3 (Homo sapiens, UniProt Q9NZJ5); test: Dose response cell-based high-throughput screening assay to measure PERK inhibition. [Related pubchem assays: 1416 ]; assay type: functional
[7] = target: Luciferin 4-monooxygenase (Photinus pyralis, UniProt P08659); test: firefly luciferase enzyme inhibitors, dose response, biochemical, luminescence (AID 1891)
[8] = Luminescence Cell-Based Dose Confirmation HTS to Identify Inhibitors of Platelet Dense Granule Release. [Related pubchem assays: 1663 (Primary HTS), 1678 (Summary of Project)]; assay type: functional
[9] = target: T1, Eukaryotic translation initiation factor 2-alpha kinase 3; test: Counterscreen assay for PERK inhibitors: Dose response cell-based high throughput screening assay to measure inhibition of PERK at 6 hours. [Related pubchem assays: 1522, 1416 ]; assay type: functional
[10] = target: Cytochrome P450 2C9 (Homo sapiens, UniProt P11712); conditions: Potency
[11] = target: Cytochrome P450 2C19 (Homo sapiens, UniProt P33261); test: qHTS Assay for Inhibitors and Substrates of Cytochrome P450 2C19. [Related pubchem assays: 410 ]; assay type: ADME; conditions: read-out: Potency
[12] = ARNT/TACC3 interaction disruptors, potency, confirmation, biochemical, AlphaScreen, cherry-picked samples (AID 651703); assay type: functional, Homo sapiens;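 further: His-tagged ARNT PAS-B domain paired with GST-TACC3 E629A dimer coactivator fragment; potency of inhibitors that break up the complex and lower AlphaScreen signal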
[13] = target: Protein Rev (Human immunodeficiency virus type 1 group M subtype B (isolate WMJ22)(HIV-1), UniProt P05866); test: HIV-1 Rev-RRE RNA binding disruptors, dose response, biochemical, protein-RNA interaction (AID 842); design: species or system Human immunodeficiency virus 1
[14] = target: T2, Mannose-6-phosphate isomerase (Homo sapiens, UniProt P34949); test: inhibitors of human PMI, primary screen, biochemical, fluorescence intensity, coupled assay (AID 1209)
T2 sequence (P34949 whole entry): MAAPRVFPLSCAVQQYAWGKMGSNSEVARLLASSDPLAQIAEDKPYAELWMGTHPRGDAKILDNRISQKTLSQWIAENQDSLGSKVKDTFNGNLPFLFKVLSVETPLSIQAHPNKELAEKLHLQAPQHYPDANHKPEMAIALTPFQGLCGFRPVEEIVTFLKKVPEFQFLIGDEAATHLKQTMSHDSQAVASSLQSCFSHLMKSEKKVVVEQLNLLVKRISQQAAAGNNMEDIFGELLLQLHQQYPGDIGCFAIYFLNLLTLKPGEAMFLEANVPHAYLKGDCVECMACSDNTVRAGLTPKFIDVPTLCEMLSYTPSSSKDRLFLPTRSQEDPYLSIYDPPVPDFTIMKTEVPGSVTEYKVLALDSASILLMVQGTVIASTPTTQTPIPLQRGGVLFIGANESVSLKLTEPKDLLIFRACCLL

[15] = target: Procathepsin L (Homo sapiens, UniProt P07711)
[16] = target: Glucose-6-phosphate 1-dehydrogenase (Homo sapiens, UniProt P11413); test: human G6PD enzyme inhibitors, dose response, selectivity assay for P. falciparum G6PD inhibitor project, biochemical, fluorescence (AID 504792); assay type: functional
[17] = target: Aspartyl aminopeptidase (Plasmodium falciparum 3D7, UniProt Q8I2J3)
[18] = target: T3, Oxysterols receptor LXR-beta (Homo sapiens, UniProt P55055); assay type: functional, cell-based;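 further: Cell-based luminescence dose-response assay of agonist activity at LXR, run as a confirmatory counterscreen to a daf-12 agonist screen; HEK293 cells with Gal4-LXR fusion and GAL4-driven luciferase reporter; agonist potency from rising luciferase signal of a Gal4-LXR reporter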
T3 sequence (P55055 whole entry): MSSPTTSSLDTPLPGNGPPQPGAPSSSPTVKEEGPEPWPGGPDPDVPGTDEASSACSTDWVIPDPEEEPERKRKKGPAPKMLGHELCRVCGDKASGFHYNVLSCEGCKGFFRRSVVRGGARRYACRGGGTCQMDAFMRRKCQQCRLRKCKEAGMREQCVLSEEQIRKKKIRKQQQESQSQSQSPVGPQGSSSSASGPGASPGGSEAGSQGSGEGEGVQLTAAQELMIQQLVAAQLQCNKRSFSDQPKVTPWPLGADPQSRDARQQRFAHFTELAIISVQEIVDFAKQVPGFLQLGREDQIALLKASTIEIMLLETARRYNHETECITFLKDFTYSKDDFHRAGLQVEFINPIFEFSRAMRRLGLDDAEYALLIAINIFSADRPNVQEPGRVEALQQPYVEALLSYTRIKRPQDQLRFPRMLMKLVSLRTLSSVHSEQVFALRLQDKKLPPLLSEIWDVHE

[19] = LGR2 antagonists, dose response, cell-based, HEK293, CRE-luciferase reporter, cherry pick, set 2 (AID 743343); assay type: functional;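 further: transfected cells were stimulated with diluted bursicon conditioned medium after compound addition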
[20] = cells
[21] = HepG2 cell cytotoxicity, dose response, cytotoxicity control, plate reader, cherry-pick, antagonist series (AID 743416); assay type: functional, cell-based
[22] = MC4R antagonists, dose response, counter-screen for LGR2 antagonist project, cell-based, plate reader, cherry pick (AID 743444); assay type: functional;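 further: transfected HEK 293 cells stimulated with alpha-MSH peptide; potency of inhibitors of the alpha-MSH evoked signal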
[23] = Luminescence-based counterscreen assay for KLF5 inhibitors: dose response cell-based high throughput screening assay to identify cytotoxic compounds using the IEC-6 intestinal epithelial cell line. [Related pubchem assays: 1700 (Primary screen.), 1834 (Confirmation screen.), 1858 (Summary AID.), 1905 (Counterscreen.)]; assay type: functional
[24] = A549 cell cytotoxicity, dose response, cytotoxicity control, plate reader, cherry-pick, antagonist series (AID 743412); assay type: functional, cell-based
[25] = target: T4, Polyadenylate-binding protein 1 (Homo sapiens, UniProt P11940); test: PABP1 MLLE–PAM2 binding inhibitor potency, dose response, biochemical, fluorescence polarization, FITC-PAM2 peptide (AID 602259); assay type: functional; conditions: read-out: IC50_Mean
[26] = THP-1 cell cytotoxicity, dose response, cytotoxicity control for Vif-APOBEC3G degradation inhibitor project, THP-1 cells (AID 1117359); assay type: functional; conditions: Human immunodeficiency virus 1, THP-1
[27] = test system: HeLa; test: HeLa cell cytotoxicity, dose response, cytotoxicity control, 24 h, cherry-picked samples (AID 504726); assay type: functional, cell-based; conditions: Homo sapiens;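 further: potency for cytotoxicity as loss of luminescence signal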
[28] = target: T4, Polyadenylate-binding protein 1; test: PABP1 MLLE–PAM2 interaction inhibitors, dose response, miRNA deadenylation inhibitor project, biochemical, fluorescence polarization, Cy5-PAM2 peptide, secondary (AID 602260); assay type: functional; conditions: read-out: IC50_Mean
[29] = test system: Staphylococcus aureus; test: Inhibitors of Bacterial Quorum Sensing Structure Activity Relationship (SAR) Analysis: Dose Response Assay. [Related pubchem assays: 700, 527 ]; assay type: functional, organism-based
[30] = test system: Streptococcus; test: Group A Streptococcus viability loss, dose response, counter-screen for streptokinase expression inhibitor project, luminescence, BacTiterGlo (AID 1915); assay type: functional, organism-based;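 further: potency for reduction of bacterial viability or growth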
[31] = NIH-3T3 fibroblast cytotoxicity, dose response, cytotoxicity control, cell-based, fluorescence, Alamar Blue, secondary assay (AID 2327); assay type: functional;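 further: NIH-3T3 mouse fibroblasts cultured with fluconazole at 8 µg/mL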
[32] = target: Paired box protein Pax-8 (Homo sapiens, UniProt Q06710); test: inhibitors of PAX8-driven TPO luciferase reporter, dose response, RMG-I cells, cherry-pick (AID 687027); assay type: functional, cell-based;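 further: luciferase reporter driven by Pax8 target thyroperoxidase promoter measured by SteadyGlo luminescence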
[33] = inhibitors of intracellular T. cruzi replication, confirmation, NIH3T3 host cells, beta-gal luminescence (AID 2044); assay type: functional, cell-based;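 further: intracellular parasites grown in NIH/3T3 mouse fibroblasts as host cells; luminescent beta-galactosidase reporter signal from transgenic T. cruzi replicating inside host cells; inhibitors lower the luminescence signal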
[34] = non-specific cell cytotoxicity, dose response, cytotoxicity control for PAX8 inhibitor project, plate reader, dry powder samples (AID 743021); assay type: functional, cell-based
[35] = cytotoxicity toward NIH3T3 fibroblasts, dose response, counter-screen, cell-based, ATP luminescence, mouse fibroblasts (AID 2010); assay type: functional;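 further: cells exposed to compound for about 90 hours before reading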
[36] = test system: Streptococcus sp. 'group A'; test: growth inhibition of control SK(-) GAS strain, dose response, counter-screen for streptokinase expression inhibitor project, luminescence, kanamycin, BacTiterGlo, confirmation (AID 1900); assay type: functional, organism-based
[37] = insulin promoter down-regulators in MIN6 cells, imaging, high-content screening, mouse beta cells (AID 1628); assay type: functional
[38] = cytotoxicity in MIN6 insulinoma cells, dose response, cytotoxicity control, cell-based, mouse insulinoma (AID 2122); assay type: functional;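 further: confirmatory high-throughput counterscreen run to flag cytotoxic compounds; mouse MIN-6 beta cells carrying an insulin promoter eGFP reporter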
[39] = target: Beta-galactosidase (Escherichia coli, UniProt Q8VNN2); test: beta-galactosidase enzyme inhibitors and activators, dose response, artefact control for CCR6 antagonist project, biochemical, E. coli enzyme, set 3 (AID 504712); assay type: functional
[40] = target: C-C chemokine receptor type 6 (Homo sapiens, UniProt P51684); test: CCR6 receptor antagonists, dose response, cell-based, luminescent beta-arrestin readout (AID 504728); assay type: functional
[41] = C. albicans growth with fluconazole, confirmation, fluorescence, retest (AID 2467); assay type: functional, cell-based
[42] = target: Acyl-homoserine lactone acylase PvdQ (Pseudomonas aeruginosa (strain LESB58), UniProt Q9I194); test: P. aeruginosa PvdQ acylase inhibitors, dose response, biochemical, fluorescence, plate reader and imaging, cherry-picks (AID 493231)

T1 sequence (Q9NZJ5 whole entry): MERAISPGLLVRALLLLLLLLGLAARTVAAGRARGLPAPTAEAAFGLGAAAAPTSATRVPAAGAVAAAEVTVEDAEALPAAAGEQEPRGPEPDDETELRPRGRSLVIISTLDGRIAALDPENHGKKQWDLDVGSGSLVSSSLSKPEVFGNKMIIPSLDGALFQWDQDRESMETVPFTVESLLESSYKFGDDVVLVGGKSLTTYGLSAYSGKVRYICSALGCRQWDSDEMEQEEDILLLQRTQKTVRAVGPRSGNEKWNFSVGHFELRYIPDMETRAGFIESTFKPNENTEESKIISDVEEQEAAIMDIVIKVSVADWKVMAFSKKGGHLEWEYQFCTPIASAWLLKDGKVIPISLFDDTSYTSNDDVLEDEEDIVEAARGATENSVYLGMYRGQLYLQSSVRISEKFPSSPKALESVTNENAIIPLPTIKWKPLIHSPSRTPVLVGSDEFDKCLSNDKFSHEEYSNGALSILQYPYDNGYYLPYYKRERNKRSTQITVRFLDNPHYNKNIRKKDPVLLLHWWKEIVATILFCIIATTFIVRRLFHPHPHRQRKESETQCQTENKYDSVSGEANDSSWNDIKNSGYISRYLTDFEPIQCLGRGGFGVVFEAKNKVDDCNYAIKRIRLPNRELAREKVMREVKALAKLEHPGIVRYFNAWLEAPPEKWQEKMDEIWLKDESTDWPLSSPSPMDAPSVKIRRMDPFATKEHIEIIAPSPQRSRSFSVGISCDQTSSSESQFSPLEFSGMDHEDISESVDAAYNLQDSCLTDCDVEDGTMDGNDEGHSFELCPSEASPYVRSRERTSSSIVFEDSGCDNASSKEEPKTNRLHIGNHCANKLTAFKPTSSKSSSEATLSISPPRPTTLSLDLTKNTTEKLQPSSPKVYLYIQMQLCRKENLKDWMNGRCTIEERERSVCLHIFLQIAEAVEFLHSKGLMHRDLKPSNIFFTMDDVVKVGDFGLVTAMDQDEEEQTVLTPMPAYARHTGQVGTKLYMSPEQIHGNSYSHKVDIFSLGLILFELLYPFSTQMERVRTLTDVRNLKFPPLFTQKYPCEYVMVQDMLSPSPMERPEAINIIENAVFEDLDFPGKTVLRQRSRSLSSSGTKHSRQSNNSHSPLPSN
T4 sequence (P11940 whole entry): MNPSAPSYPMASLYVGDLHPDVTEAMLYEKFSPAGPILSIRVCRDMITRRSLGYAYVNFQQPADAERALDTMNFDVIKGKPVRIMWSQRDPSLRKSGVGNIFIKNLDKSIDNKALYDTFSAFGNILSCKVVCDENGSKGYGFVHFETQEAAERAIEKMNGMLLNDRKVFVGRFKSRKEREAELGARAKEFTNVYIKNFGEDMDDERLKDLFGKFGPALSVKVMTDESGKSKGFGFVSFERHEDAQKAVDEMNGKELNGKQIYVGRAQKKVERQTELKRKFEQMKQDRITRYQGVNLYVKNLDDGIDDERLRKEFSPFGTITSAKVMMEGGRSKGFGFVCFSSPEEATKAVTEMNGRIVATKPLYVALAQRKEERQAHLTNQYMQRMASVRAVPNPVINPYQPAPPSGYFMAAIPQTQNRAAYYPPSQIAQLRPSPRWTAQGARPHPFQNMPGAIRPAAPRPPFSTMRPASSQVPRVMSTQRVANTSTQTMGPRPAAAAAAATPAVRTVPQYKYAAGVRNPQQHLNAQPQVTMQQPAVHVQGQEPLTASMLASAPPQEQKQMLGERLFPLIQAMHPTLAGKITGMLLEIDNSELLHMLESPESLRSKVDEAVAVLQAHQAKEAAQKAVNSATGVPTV
Chain of C-C chemokine receptor type 6 (P51684 whole entry): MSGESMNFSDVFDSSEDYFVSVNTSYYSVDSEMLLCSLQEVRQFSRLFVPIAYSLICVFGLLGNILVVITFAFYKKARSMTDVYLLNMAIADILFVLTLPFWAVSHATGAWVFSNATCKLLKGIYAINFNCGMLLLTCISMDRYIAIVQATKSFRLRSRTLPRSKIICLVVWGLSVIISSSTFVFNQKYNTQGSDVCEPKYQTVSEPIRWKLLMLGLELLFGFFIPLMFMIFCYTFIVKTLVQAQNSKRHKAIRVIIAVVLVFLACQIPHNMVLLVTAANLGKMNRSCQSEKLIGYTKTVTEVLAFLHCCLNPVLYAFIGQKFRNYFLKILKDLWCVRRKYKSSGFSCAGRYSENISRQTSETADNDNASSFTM
Chain of Mothers against decapentaplegic homolog 3 (P84022 whole entry): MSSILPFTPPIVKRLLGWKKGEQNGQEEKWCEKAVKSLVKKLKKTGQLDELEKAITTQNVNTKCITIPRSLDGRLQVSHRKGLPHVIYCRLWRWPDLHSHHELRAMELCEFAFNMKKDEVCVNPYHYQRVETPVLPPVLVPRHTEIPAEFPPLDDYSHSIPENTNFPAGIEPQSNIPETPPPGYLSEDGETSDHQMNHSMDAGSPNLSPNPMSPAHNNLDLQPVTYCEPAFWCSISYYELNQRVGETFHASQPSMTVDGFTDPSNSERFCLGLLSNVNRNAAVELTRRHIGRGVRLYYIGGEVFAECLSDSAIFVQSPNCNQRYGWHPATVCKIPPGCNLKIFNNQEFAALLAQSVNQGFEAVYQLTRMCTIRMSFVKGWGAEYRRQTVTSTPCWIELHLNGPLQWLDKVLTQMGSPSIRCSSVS
Chain of Cyclin-dependent kinase 5/CDK5 activator 1 (Q00535 whole entry): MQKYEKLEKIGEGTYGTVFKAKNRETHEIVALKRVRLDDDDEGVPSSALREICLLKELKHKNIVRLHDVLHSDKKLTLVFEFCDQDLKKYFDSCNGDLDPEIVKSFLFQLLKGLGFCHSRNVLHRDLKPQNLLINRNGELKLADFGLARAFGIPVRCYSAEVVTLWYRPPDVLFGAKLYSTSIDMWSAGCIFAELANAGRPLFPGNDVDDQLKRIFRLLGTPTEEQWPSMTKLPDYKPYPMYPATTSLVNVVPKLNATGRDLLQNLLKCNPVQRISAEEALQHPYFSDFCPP
Chain of Cyclin-dependent kinase 5/CDK5 activator 1 (Q15078 whole entry, further chain): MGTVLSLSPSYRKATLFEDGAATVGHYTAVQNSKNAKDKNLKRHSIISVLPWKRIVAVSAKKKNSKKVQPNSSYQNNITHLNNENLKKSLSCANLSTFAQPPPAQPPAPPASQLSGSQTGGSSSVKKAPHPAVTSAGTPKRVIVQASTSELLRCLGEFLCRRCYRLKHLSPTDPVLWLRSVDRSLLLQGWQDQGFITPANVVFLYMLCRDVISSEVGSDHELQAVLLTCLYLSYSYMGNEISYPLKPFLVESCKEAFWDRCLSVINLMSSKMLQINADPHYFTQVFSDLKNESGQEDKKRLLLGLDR
Chain of Aspartyl aminopeptidase (Q8I2J3 whole entry, the tested form may be a part): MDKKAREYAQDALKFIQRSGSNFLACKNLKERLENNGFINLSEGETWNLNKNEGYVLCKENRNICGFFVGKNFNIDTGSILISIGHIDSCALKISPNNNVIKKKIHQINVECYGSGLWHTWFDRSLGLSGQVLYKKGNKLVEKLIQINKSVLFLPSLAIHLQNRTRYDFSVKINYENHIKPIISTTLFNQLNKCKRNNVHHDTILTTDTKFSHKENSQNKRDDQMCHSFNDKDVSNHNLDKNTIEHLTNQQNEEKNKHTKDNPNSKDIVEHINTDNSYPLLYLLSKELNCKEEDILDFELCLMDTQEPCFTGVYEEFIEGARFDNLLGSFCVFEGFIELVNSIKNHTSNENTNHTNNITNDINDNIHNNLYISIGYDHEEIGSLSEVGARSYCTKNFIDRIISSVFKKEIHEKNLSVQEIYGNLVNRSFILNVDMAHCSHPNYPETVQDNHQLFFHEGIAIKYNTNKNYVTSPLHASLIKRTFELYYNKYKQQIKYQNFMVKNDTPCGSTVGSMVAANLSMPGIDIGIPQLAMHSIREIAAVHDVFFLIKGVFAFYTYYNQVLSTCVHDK
Chain of Glucose-6-phosphate 1-dehydrogenase (P11413 whole entry): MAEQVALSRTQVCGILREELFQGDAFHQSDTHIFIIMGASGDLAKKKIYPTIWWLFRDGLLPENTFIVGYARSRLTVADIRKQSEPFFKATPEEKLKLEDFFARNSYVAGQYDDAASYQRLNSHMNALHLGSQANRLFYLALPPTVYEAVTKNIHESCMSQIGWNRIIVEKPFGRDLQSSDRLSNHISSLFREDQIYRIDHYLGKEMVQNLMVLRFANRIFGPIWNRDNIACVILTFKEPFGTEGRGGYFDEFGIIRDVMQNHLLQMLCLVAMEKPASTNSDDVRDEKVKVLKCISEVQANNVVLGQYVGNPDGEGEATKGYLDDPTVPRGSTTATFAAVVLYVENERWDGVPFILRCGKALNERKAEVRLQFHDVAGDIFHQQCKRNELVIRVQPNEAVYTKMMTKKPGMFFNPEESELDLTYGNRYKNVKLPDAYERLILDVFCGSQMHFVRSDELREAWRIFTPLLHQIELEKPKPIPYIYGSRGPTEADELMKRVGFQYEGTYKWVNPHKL
Chain of Procathepsin L (P07711 whole entry): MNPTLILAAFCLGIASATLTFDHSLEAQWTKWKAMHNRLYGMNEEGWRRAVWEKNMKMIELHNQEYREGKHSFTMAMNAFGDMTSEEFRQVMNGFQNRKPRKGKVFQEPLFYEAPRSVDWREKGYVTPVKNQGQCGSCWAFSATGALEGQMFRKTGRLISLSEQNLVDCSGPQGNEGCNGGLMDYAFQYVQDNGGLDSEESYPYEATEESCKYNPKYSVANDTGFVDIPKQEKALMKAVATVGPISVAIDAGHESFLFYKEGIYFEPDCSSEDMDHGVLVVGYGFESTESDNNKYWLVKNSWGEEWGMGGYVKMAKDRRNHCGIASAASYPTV
Chain of Protein Rev (P05866 whole entry): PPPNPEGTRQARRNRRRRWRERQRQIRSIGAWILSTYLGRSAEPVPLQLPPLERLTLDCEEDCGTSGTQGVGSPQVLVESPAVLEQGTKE
Chain of Dual specificity protein phosphatase 3 (P51452 whole entry): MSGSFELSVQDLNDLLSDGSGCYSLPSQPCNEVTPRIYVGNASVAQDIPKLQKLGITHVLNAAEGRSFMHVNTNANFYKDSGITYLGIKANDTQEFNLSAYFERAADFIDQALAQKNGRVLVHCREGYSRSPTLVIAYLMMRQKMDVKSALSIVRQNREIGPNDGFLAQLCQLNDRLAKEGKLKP

## CCN(CC)c1ccc(C=C(c2nnnn2-c2ccccc2)c2nnnn2-c2ccccc2)cc1
[1]
  IC50: > 55.9 µM (not active)
[2]
  IC50: > 55.7 µM (not active)

## COc1cccc(C(c2cc3c(cc2O)OCO3)N2CCCC2)c1O (stereo not drawn)
[3]
  IC50: < 2.5 µM (not active)

## Cc1ccc(-n2nc(C)c3c2C(Br)C(C)(C)CC3=O)nc1 (stereo not drawn)
[4]
  AC50: 43.3 µM (active)

## COc1ccc(-c2cc(C(=O)NCCc3ccccc3)c3ccccc3n2)c(OC)c1
[5]
  Ki: 27.9 µM (inactive)

## COc1ccc(N=Nc2n(C)c3ccccc3[n+]2C)cc1
[6]
  EC50: > 55.7 µM (not active)
[7]
  EC50: 0.631 µM (active)
[8]
  EC50: 0.738 µM (active)
[9]
  EC50: > 55.7 µM (not active)

## CC(C)[C@@H](CC(=O)N[C@@H]1CCNC[C@H]1C(=O)N[C@H](CC(=O)N[C@@H](CCC(=O)O)CC(=O)O)Cc1ccccc1)NC(=O)C[C@H](CO)NC(=O)[C@@H]1CNCC[C@H]1N
[10]
  AC50: 25.1 µM (inconclusive)
[11]
  AC50: 39.8 µM (inconclusive)

## COc1ccc(Nc2nc(N)nc(CN(C)C3CCCCC3)n2)cc1
[12]
  AC50: 90.7 µM (active)
[13]
  IC50: > 79.4 µM (not active)

## CC1(C)CC2(CC(c3ccccc3F)c3ccc(O)c(O)c3O2)NC(=S)N1 (stereo not drawn)
[14]
  IC50: 39.9 µM (active)
[15]
  IC50: > 59.6 µM (not active)
[16]
  IC50: > 80 µM (inactive)
[17]
  IC50: 1.76 µM (active)

## O=C(c1cc(-c2ccccc2Cl)on1)N1CCCC1
[18]
  EC50: > 67.5 µM (inactive)
[19]
  AC50: 7.48 µM (active)
[20]
  EC50: > 67.5 µM (inactive)
[21]
  AC50: > 52 µM (inactive)
[22]
  AC50: 12.1 µM (active)
[23]
  IC50: > 39.8 µM (not active)
[24]
  AC50: > 52 µM (inactive)

## CN(Cc1cnc2nc(N)nc(N)c2n1)c1ccc(C(=O)NC(CCC(=O)O)C(=O)O)cc1 (stereo not drawn)
[25]
  IC50: 41.6 µM (inactive)
[26]
  CC50: 0.23 µM (active)
[12]
  AC50: 74.5 µM (active)
[27]
  AC50: 0.629 µM (active)
[28]
  IC50: 52.1 µM (inactive)

## O=C(O)c1ccccc1NC(c1ccccc1)c1ccc(Cl)cc1 (stereo not drawn)
[29]
  IC50: 0.448 µM (active)

## COc1cccc(/C=N/Nc2nc(Nc3ccc([N+](=O)[O-])cc3)nc(N3CCCC3)n2)c1O
[30]
  EC50: 12.1 µM (active)
[31]
  EC50: 4.69 µM (active)
[32]
  AC50: 5.65 µM (active)
[33]
  EC50: 0.866 µM (active)
[34]
  AC50: 20.9 µM (active)
[35]
  EC50: 8.48 µM (active)
[36]
  EC50: 3.77 µM (active)
[37]
  IC50: 2.8 µM (active)
[38]
  IC50: 2.71 µM (active)
[39]
  IC50: > 66.6 µM (inactive)
[40]
  IC50: 1.64 µM (active)
[41]
  EC50: > 38 µM (not active)

## Cc1cccc(NC(=O)Nc2cc(C)on2)c1
[42]
  AC50: 7.61 µM (active)
